Test results reported in US20230340498A1, “COMPOSITIONS AND METHODS FOR INDUCIBLE ALTERNATIVE SPLICING REGULATION OF GENE EXPRESSION” (The Children's Hospital of Philadelphia, priority 2020, published 2023).

How the values were obtained:
Assay type in all cases: cell-based, Human
SMN2-on minigene = test: SMN2-on cassette Firefly luciferase reporter assay in transfected HEK293 cells
Description: (§1) Cell culture, transfection, and LMI070/RG7800 treatment. Human embryonic kidney (HEK293) cells (obtained from CHOP Research Vector Core stock) were maintained in DMEM media containing 10% Fetal Bovine Serum (FBS), 1% L-Glutamine and 1% penicillin/streptomycin at 37° C. with 5% CO2. Cells were cultured in 24 well plates and transfected at 80-90% confluence using Lipofectamine 2000 transfection reagent, according to the manufacturer’s protocol. For all experiments, 4 hours after plasmid transfection, cells were treated with LMI070 (MedChemExpress, HY-19620, suspended in DMSO) or RG7800 (MedChemExpress, HY-101792A, suspended in H2O) at the indicated concentrations. Cells were tested for mycoplasma by Research Vector Core. None of the cells used in the study were listed in ICLAC database of commonly misidentified cell lines.
In vitro luciferase assays. HEK293 cells were cultured in DMEM (10% FBS (v/v), 1% Pen/ Strep (v/v), and 1% L-glutamine (v/v) in a 24-well plate. At 70%-80% confluence, cells were co-transfected with the Xon.Firefly luciferase cassettes (0.3 µg/well) and a SV40p-Renilla luciferase cassette as transfection control (0.02 µg/well). Four hours after transfections cells were treated either with LMI070 or RG7800 at indicated concentrations. At 24 h after transfection, cells were rinsed with ice-cold PBS and Renilla and Firefly luciferase activities were assessed using the Dual-Luciferase Reporter Assay System (Promega) according to the manufacturer’s instructions. Luminescent readouts were obtained with a Monolight 3010 luminometer (Pharmigen). Relative light units (RLUs) were calculated as the quotient of […] RLUs and results expressed relative to mock treated control cells.
For this, SMN2-on cassettes were generated to provide drug-induced reporter gene expression. HEK293 cells were transfected with the SMN2-on expression cassettes and luciferase activity evaluated in response to varying doses of LMI070 or RG7800. […]

SMN2 exon 7 = test: SMN2-on cassette exon 7 splicing assay (RT-PCR) in transfected HEK293 cells; conditions: LMI070 compared with RG7800
Description: as §1, with “None of the cells used in the study were listed in ICLAC database of commonly misidentified cell lines.” left out
RNA extraction, RT-PCR, and Splicing assays. […] To determine HTT expression levels after transfection, RNA samples were quantified by spectrophotometry and subsequently cDNAs generated from […] of total RNA with random hexamers (TaqMan RT reagents, Applied Biosystems). […] Relative HTT gene expression was determined using the ddCt method. […] Splicing was determined by PCR using the Phusion High-Fidelity polymerase (Thermofisher) and PCR products separated on a 2.5% agarose gel pre-stained with EtBr and spliced-in and spliced-out band densitometry performed using with the ChemiDoc Imaging System (BioRad) and Image Lab analysis software. […]

HTT = test: X^on-SaCas9 regulated HTT exon 1 editing in HEK293 cells
Description: as §1
RNA extraction, RT-PCR, and Splicing assays. Total RNA was extracted using Trizol (Life Technologies) according to the manufacturer’s protocol, with the exception of 1 µL Glycoblue (Life Technologies) in addition to the aqueous phase on the isopropanol precipitation step and a single wash with cold 70% ethanol. To determine HTT expression levels after transfection, RNA samples were quantified by spectrophotometry and subsequently cDNAs generated from […] of total RNA with random hexamers (TaqMan RT reagents, Applied Biosystems). To determine human HTT expression levels in HEK293 cells, we used TaqMan probes for human HTT and glyceraldehyde 3-phosphate dehydrogenase (GAPDH) mRNAs obtained from Applied Biosystems. Relative HTT gene expression was determined using the ddCt method. […] Splicing was determined by PCR using the Phusion High-Fidelity polymerase (Thermofisher) and PCR products separated on a 2.5% agarose gel pre-stained with EtBr and spliced-in and spliced-out band densitometry performed using with the ChemiDoc Imaging System (BioRad) and Image Lab analysis software. Splicing induction from mouse tissues was determined using two custom TaqMan assays designed to determine total or LMI070-spliced in mRNA transcripts. The percentage of induction was determined by dividing the average Ct novel exon and average Ct Total, relative to control animals injected with AAV virus plus vehicle.
Western Blots. HEK293 cells were rinsed and lysed with Passive Lysis Buffer (PBL, Promega), protein concentrations determined using the DC protein assay (Bio-Rad), and 10-20 µg of protein loaded on a 3%-8% NuPAGE Tris-Acetate Gel in tris-acetate buffer (Novex Life Technologies) or a 4-12% NuPAGE TrisBis NuPAGE gels in MES buffer (Novex Life Technologies) to determine HTT, SaCas9, or eGFP protein levels, respectively, with β-catenin as loading control. […]

SF3B3-on-eGFP cassette = SF3B3-on-eGFP cassette expression in HEK293 cells; conditions: LMI070 vs DMSO
Description: as §1
Next, a series of switch-on cassettes were developed from the top 4 LMI070-responsive exons found in the RNA-Seq dataset. […] HEK293 cells were transfected with the candidate cassettes, treated with LMI070, and luciferase activity or eGFP expression determined 24 h later. […] Similarly, eGFP expression was only detected in cells transfected with the SF3B3-on-eGFP cassette in response to LMI070 treatment (FIG. 3D).

SMILES: CC1(C)CC(Oc2ccc(-c3ccc(-c4cn[nH]c4)cc3O)nn2)CC(C)(C)N1 [LMI070, 5-(1H-Pyrazol-4-yl)-2-(6-((2,2,6,6-tetramethylpiperidin-4-yl)oxy)pyridazin-3-yl)phenol]
- luciferase activity from the SMN2-on minigene (SMN2-on minigene; HEK293 cells, varying doses): induced luciferase activity
- overall induction of luciferase, refined SMN2-on switch system (SMN2-on minigene; indSMN2 cassette, relative to DMSO treated cells (FIG. 1E: LMI070 100 nM)): approximately 20 fold
- relative activity in the setting of the SMN2-on cassette (SMN2 exon 7): more active than RG7800
- SaCas9 expression from X^on switch (HTT; HEK293 cells, varying doses of LMI070, western blot 24 h): clear dose response
- HTT exon 1 editing versus constitutively expressed SaCas9 (HTT; X^on-SaCas9 plus gRNAs, 100 nM LMI070): equivalent editing
- reduction of HTT transcripts (HTT; X^on-SaCas9 plus gRNAs, upon LMI070 treatment, RT-qPCR): 50%
- HTT protein levels (HTT; X^on-SaCas9 plus gRNAs, upon LMI070 treatment, western blot): similarly reduced
- eGFP expression from SF3B3-on-eGFP cassette (SF3B3-on-eGFP cassette): only detected
